According to patent US12059393B2, “Compositions for topical treatment of radiation dermatitis” (Akos Biosciences, Inc, priority 2022, dated 2024):

Tests used:
[1] = Body weight change in irradiated mice; type: in vivo, Balb/c mice
Experimental: A study was performed on mice to determine the efficacy of topically-dosed CBD in an olive oil vehicle for the treatment of acute radiation-induced dermatitis. Three different CBD dosages were used— 30 mg/mL (3 wt %), 120 mg/mL (12 wt %), and 250 mg/mL (25 wt %).
144 female Balb/c mice with an average starting body weight (±SEM) of 17.96±0.12 grams were randomized into six (6) groups of 24 animals each, as follows:
The control group (Group 1) was not irradiated. The animals in Groups 2-6 were anesthetized via a single intraperitoneal injection of xylazine and ketamine prior to being administered a single dose of 30 Grays (Gy) of radiation directed at a 2 cm×4 cm patch of shaved dorsal skin on Day 0. Radiation was generated by a 160 kVp (15-ma) X-ray source at a focal distance of 10 cm, hardened with a 0.35 mm Cu filtration system at a rate of approximately 3.2 Gy/minute.
Dosing for animals in Groups 3-6 began on Day 0 immediately after radiation. Treatments were administered topically (0.1 mL per animal) daily from Days 0-28.
Starting on Day 8 and continuing every other day thereafter (Days 8-28), each animal was evaluated for skin redness and dermatitis, and photographed for subsequent blinded scoring of dermatitis at the completion of the study. Body weight was taken daily.

[2] = test system: 3D in vitro skin model containing epidermal keratinocytes and dermal fibroblasts; test: LDH cytotoxicity assay in 3D in vitro skin model; type: cell-based; conditions: light or radiation study, UV (200 mJ UVB/cm^2), topical 24 h
Experimental: (§1) A 3D in vitro skin model containing epidermal keratinocytes and dermal fibroblasts was used. Some tissues were irradiated with 200 mJ UVB/cm^2. Test materials were applied topically for 24 hours (after UVB exposure) and an MTT assay was used to check the viability of cells. The following treatment groups were used: • olive oil (no CBD); • CBD in olive oil in concentrations of 30, 60, 120, and 250 mg/mL; • No treatment; and • Triton-X® as positive control.
(§2) Cytotoxicity was assessed with a lactate dehydrogenase (LDH) assay using media collected from the wells of the tissues. Increased LDH activity is an indicator of damaged or dead cells.
(§3) The results are provided in the following Table A, with the untreated group defining 0% cytotoxicity and Triton-X defining 100% cytotoxicity. Lower cytotoxicity is better. * indicates p≤0.05 and ** indicates p≤0.01 statistical significance after performing unpaired t-test.

[3] = LDH cytotoxicity assay in 3D in vitro skin model; type: cell-based; conditions: no UV, topical 24 h
Experimental: as §1, §2, §3

[4] = test system: acute radiation-induced dermatitis; test: Blinded clinical dermatitis scoring in mouse radiation dermatitis model; type: in vivo, Balb/c mice; conditions: 150 mg/mL CBD

C=C(C)[C@@H]1CCC(C)=C[C@H]1c1c(O)cc(CCCCC)cc1O [CBD, 2-[(1R,6R)-6-Isopropenyl-3-methylcyclohex-2-en-1-yl]-5-pentylbenzene-1,3-diol]
Percent weight change over time ([1]; 30 mg/mL and 120 mg/mL CBD groups, topical daily Days 0-28, FIG. 1): most closely followed the curve of the naïve group | Percent weight change, difference between CBD-treated groups and the other three groups ([1]; three CBD-treated groups (30, 120, 250 mg/mL)): not found to be statistically significant | cytotoxicity at 30000 µg/mL ([2]; 30 mg/mL CBD in olive oil): 17% | cytotoxicity at 60000 µg/mL ([2]; 60 mg/mL CBD in olive oil): 19% | cytotoxicity at 120000 µg/mL ([2]; 120 mg/mL CBD in olive oil): 16% | cytotoxicity at 250000 µg/mL ([2]; 250 mg/mL CBD in olive oil): 16% | cytotoxicity at 24 h, 30 mg/mL ([3]; 30 mg/mL CBD in olive oil, untreated=0%, Triton-X=100%): 4% | cytotoxicity at 24 h, 60 mg/mL ([3]; 60 mg/mL CBD in olive oil): 4% | cytotoxicity at 24 h, 120 mg/mL ([3]; 120 mg/mL CBD in olive oil): 5% | cytotoxicity at 24 h, 250 mg/mL ([3]; 250 mg/mL CBD in olive oil): 11% | % Days ≥2 [4]: 61.22%
